Assay [1] concerns the target Tyrosine-protein kinase JAK1 (Homo sapiens, UniProt P23458). Briefly: Selectivity interaction (KinomeScan (DiscoverX)) EUB0000691a JAK1@kinase 1. To be noted: at 10 µM.
In assay [2] the target is Dual specificity mitogen-activated protein kinase kinase 4 (Homo sapiens) (UniProt P45985). Briefly: Selectivity interaction (KinomeScan (DiscoverX)) EUB0000691a MAP2K4. To be noted: at 10 µM.
Assay [3] deals with Serine/threonine-protein kinase 16 (Homo sapiens, UniProt O75716). Briefly: Selectivity interaction (KinomeScan (DiscoverX)) EUB0000691a STK16. To be noted: at 10 µM.
For assay [4], the target named is Dual specificity protein kinase TTK (Homo sapiens) (UniProt P33981). Briefly: Selectivity interaction (KinomeScan (DiscoverX)) EUB0000691a TTK. To be noted: at 10 µM.
Assay [5] has as its target T1, Cyclin-G-associated kinase (Homo sapiens) (UniProt O14976).
T1 sequence (whole entry): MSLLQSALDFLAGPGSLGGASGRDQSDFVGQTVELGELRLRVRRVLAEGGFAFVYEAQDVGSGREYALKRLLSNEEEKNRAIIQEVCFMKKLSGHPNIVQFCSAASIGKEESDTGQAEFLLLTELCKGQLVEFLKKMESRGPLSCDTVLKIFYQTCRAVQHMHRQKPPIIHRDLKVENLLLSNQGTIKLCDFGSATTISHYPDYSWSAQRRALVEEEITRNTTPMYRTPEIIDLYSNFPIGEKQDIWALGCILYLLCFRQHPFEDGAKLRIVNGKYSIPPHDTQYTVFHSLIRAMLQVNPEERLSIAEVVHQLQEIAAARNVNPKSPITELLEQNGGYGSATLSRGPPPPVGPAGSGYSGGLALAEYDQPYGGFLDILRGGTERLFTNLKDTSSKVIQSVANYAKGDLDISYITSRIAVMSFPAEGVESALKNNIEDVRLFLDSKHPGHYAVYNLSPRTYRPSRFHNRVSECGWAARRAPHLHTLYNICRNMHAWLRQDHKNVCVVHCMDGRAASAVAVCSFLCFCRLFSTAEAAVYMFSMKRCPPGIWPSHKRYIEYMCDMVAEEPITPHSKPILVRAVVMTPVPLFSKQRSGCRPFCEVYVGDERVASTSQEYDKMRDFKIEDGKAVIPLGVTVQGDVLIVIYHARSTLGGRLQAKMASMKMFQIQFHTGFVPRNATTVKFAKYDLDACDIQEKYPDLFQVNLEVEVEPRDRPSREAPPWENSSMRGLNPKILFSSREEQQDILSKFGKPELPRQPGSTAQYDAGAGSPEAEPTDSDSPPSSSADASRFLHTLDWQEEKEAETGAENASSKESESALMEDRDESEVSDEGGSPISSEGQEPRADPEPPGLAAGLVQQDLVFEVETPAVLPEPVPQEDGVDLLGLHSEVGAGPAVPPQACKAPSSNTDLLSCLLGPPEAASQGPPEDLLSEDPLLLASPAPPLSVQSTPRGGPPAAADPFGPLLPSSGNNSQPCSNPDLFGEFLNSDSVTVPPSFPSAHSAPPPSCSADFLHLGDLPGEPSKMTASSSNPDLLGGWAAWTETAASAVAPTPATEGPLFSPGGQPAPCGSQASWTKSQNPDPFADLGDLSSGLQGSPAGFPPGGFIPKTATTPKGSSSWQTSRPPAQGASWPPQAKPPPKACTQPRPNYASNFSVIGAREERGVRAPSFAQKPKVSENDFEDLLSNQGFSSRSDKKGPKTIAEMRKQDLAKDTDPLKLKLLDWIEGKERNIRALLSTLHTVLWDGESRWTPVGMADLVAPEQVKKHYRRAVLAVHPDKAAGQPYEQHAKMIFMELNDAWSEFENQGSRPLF
Briefly: Selectivity interaction (KinomeScan (DiscoverX)) EUB0000691a GAK. To be noted: at 10 µM.

Assay [6] has as its target Phosphatidylinositol 3-kinase C2 domain-containing subunit gamma (Homo sapiens) (UniProt O75747). Briefly: Selectivity interaction (KinomeScan (DiscoverX)) EUB0000691a PIK3C2G. To be noted: at 10 µM.
In another assay the target is Activated CDC42 kinase 1 (Homo sapiens, UniProt Q07912). Briefly: Selectivity interaction (KinaseProfiler™ (Millipore)) EUB0000640a TNK2. To be noted: at 1 µM.
Chain of Activated CDC42 kinase 1 (Q07912 whole entry, looked up): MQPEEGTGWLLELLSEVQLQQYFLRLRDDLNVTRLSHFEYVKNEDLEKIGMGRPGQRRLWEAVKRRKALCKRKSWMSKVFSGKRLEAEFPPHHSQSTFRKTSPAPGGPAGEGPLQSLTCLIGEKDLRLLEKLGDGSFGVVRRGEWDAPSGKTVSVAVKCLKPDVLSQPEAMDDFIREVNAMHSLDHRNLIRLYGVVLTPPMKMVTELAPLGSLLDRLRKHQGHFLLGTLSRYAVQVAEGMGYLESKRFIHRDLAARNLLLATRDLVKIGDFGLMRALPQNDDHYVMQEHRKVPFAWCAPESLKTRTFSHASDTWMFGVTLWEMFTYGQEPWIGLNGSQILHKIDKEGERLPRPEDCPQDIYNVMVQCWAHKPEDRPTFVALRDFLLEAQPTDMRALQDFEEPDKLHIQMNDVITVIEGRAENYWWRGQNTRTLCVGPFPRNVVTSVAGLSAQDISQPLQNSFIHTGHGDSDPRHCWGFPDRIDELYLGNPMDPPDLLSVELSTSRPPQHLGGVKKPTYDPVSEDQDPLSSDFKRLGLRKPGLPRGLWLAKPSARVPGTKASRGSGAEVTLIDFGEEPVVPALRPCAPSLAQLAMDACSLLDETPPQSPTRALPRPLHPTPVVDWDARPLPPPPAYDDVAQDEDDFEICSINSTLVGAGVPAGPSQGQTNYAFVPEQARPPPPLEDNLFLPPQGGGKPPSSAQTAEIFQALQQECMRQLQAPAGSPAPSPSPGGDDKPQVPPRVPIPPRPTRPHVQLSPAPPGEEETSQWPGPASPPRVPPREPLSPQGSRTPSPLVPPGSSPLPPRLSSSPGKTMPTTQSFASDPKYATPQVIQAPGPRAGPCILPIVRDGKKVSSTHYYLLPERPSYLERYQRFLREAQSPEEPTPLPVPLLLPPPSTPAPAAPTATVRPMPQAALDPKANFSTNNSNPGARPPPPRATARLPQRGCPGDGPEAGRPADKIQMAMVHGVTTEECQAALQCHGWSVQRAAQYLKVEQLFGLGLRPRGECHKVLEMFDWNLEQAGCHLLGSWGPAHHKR
For assay [7], the target named is Proto-oncogene tyrosine-protein kinase ROS (Homo sapiens) (UniProt P08922). Briefly: Selectivity interaction (KinaseProfiler™ (Millipore)) EUB0000640a ROS1. To be noted: at 1 µM.
Chain of Proto-oncogene tyrosine-protein kinase ROS (Homo sapiens) (P08922 whole entry): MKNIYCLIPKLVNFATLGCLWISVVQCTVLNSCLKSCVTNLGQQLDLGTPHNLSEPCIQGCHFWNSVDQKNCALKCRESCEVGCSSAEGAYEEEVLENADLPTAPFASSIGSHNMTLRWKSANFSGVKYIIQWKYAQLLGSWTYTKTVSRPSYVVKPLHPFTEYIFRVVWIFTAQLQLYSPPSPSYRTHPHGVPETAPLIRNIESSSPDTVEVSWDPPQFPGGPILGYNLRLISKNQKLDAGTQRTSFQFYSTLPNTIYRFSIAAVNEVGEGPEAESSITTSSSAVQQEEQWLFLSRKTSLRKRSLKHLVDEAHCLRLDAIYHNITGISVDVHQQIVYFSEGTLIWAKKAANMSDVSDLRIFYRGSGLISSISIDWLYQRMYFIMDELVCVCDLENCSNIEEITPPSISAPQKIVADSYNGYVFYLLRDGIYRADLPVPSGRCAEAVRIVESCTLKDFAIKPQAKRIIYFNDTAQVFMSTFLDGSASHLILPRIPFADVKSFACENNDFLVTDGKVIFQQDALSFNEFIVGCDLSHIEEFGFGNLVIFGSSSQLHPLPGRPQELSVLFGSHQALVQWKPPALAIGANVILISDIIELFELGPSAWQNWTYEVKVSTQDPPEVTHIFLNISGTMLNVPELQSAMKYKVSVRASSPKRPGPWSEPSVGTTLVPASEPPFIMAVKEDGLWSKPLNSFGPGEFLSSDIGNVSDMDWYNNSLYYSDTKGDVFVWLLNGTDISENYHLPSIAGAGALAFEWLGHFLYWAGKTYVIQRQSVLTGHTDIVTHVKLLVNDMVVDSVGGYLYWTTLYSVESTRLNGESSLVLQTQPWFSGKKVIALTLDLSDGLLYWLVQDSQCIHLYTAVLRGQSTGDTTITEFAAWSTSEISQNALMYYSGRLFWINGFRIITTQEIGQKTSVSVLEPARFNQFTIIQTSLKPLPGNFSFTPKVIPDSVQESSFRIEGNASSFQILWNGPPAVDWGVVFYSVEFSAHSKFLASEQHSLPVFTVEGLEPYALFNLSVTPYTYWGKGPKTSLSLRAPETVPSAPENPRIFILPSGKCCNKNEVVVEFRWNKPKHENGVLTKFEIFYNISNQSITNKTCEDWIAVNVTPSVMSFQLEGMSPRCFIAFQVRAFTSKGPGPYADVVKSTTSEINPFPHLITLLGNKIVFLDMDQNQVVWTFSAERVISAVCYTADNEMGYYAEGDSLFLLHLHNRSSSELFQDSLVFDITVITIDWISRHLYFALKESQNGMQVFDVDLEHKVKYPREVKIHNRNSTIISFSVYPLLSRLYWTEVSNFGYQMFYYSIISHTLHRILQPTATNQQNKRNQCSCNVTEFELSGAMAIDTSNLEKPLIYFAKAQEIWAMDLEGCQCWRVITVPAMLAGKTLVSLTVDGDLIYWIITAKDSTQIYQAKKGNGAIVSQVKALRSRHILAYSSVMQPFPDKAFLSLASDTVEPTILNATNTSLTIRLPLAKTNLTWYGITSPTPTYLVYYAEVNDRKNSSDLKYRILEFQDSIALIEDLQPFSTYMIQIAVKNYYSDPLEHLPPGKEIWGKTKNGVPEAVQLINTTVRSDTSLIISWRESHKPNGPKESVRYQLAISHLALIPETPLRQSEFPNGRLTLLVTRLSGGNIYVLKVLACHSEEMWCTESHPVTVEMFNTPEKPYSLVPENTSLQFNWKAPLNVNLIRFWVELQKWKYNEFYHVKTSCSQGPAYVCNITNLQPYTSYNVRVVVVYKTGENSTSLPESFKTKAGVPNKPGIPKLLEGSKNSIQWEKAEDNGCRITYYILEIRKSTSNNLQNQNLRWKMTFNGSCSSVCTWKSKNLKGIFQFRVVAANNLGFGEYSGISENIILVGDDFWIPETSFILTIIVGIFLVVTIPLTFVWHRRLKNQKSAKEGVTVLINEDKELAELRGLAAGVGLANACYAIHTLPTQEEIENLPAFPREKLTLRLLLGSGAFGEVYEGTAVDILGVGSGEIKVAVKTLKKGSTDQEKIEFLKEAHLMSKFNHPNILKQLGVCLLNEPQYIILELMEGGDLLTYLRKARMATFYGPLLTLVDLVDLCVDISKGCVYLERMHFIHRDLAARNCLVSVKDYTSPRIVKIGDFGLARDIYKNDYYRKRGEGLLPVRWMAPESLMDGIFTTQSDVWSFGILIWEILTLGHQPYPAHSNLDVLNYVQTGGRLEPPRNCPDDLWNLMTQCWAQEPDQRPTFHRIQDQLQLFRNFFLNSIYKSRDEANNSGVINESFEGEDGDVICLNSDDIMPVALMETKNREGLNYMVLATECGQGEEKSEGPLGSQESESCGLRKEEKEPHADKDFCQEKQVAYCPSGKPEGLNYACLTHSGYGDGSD
The target in assay [8] is T2, Cytoplasmic tyrosine-protein kinase BMX (Homo sapiens) (UniProt P51813).
T2 sequence (whole entry): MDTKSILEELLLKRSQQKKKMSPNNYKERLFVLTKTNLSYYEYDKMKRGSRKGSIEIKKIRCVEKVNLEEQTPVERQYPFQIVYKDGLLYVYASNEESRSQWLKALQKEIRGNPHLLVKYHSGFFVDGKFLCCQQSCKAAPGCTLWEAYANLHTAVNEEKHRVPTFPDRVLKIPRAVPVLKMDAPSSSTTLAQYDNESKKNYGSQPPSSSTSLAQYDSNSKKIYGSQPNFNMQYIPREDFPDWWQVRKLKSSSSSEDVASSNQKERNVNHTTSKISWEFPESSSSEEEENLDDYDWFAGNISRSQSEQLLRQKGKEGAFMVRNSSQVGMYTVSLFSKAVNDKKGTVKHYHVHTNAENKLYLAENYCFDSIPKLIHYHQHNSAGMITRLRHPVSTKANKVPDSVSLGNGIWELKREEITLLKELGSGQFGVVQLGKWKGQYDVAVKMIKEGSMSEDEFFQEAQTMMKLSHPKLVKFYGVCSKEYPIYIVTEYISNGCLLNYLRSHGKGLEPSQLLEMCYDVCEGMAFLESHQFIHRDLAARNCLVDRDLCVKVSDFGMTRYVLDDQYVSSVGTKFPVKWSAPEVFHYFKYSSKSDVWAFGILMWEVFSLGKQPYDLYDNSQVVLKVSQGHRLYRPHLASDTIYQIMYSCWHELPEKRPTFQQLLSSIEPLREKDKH
Briefly: Selectivity interaction (KinaseProfiler™ (Millipore)) EUB0000640a BMX. To be noted: at 1 µM.

Assay [9] addresses Tyrosine-protein kinase TXK (Homo sapiens) (UniProt P42681). Briefly: Selectivity interaction (KinaseProfiler™ (Millipore)) EUB0000640a TXK. To be noted: at 1 µM.

The source of these data is ChEMBL document CHEMBL5212743, “Selectivity Literature for EUbOPEN Chemogenomics Library wave 3” (2023).

Chain of Phosphatidylinositol 3-kinase C2 domain-containing subunit gamma (Homo sapiens) (O75747 whole entry, the tested form may be a part): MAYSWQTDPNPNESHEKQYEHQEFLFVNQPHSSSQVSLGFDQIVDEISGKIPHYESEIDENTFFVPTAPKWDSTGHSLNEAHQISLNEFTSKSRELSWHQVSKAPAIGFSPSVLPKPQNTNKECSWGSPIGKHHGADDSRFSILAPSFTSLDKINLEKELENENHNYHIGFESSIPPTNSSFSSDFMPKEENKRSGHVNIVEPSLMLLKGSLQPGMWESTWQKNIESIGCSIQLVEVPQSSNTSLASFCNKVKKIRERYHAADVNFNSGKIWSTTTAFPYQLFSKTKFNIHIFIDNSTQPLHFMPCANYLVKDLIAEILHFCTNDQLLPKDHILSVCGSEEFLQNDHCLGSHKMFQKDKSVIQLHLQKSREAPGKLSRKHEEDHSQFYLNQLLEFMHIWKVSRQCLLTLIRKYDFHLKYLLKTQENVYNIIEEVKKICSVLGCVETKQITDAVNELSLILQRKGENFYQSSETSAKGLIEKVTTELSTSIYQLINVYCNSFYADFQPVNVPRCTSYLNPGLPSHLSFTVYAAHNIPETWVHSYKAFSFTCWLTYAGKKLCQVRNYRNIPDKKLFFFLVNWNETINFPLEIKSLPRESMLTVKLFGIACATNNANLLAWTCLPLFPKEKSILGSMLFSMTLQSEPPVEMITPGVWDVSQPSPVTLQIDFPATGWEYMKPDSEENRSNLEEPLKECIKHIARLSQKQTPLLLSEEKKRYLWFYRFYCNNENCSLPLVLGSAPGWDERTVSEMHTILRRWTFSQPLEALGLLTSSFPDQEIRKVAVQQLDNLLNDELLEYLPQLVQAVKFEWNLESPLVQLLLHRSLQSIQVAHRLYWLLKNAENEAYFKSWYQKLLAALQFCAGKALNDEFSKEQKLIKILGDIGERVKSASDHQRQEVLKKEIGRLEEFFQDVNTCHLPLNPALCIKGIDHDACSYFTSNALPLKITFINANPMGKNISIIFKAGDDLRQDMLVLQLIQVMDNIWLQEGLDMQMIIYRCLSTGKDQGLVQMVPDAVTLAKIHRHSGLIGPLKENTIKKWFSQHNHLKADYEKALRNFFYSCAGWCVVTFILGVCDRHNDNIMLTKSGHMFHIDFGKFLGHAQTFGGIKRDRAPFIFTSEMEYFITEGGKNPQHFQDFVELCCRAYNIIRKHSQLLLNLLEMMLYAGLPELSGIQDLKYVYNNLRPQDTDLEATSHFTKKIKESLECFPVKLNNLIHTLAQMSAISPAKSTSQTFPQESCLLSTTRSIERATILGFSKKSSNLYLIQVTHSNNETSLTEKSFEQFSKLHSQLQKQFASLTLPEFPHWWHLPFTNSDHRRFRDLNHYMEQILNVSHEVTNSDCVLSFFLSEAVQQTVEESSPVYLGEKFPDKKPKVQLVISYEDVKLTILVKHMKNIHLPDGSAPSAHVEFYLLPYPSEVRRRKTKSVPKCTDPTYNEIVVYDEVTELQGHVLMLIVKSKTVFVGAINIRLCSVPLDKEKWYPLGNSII

In the case of `COc1ncc(-c2ccc3nccc(-c4ccnnc4)c3c2)cc1NS(=O)(=O)c1ccc(F)cc1F`, the % of control in assay [1] came to 2.2%; in assay [2], 5.9%; in assay [3], 3.4%; in assay [4] it was 4%; in assay [5], 0.2%; in assay [6], 4.4%.

With `C[C@@H]1CCc2ncc(F)cc2[C@H]2CCCN2c2ccn3ncc(c3n2)C(=O)N1`, the % of control at Activated CDC42 kinase 1 worked out at 10%; in [7], 12%; in assay [8], 15%; in [9], 14%.
